Experimental data from US20060281711A1, “IL-12 modulatory compounds” (Synta Pharmaceuticals Corp., priority 2005, published 2006).

What was measured:
IL-12 = test: Human in vitro assay: inhibition of IL-12 production in stimulated human PBMC or THP-1 cells (ELISA); type: cell-based; conditions: read-out: IC50 Range (in vitro IC50 for IL-12)
Text: The biological activities of a compound of the invention can be evaluated by a number of cell-based assays. One of such assays can be conducted using cells from human peripheral blood mononuclear cells (PBMC) or human monocytic cell line (THP-1). The cells are stimulated with a combination of human interferon-γ (IFNγ) and lipopolysaccharide or a combination of IFNγ and Staphylococcus aureus Cowan I in the presence of a test compound. The level of inhibition of IL-12 production can be measured by determining the amount of p70 by using a sandwich ELISA assay with anti-human IL-12 antibodies. IC50 of the test compound can then be determined. Specifically, PBMC or THP-1 cells are incubated with the test compound. Cell viability was assessed using the bioreduction of MTS [3-(4,5-dimethylthiazol-2-yl)-5-(3-carboxymethoxyphenyl)-2-(4-sulfophenyl)-2H-tetrazolium] (Promega, Madison, Wis.).
8. Reagents. Staphylococcus aureus Cowan I (SAC) was obtained from Calbiochem (La Jolla, Calif.), and lipopolysaccharide (LPS, Serratia marscencens) was obtained from Sigma (St. Louis, Mo.). Human and mouse recombinant IFNγ were purchased from Boehringer Mannheim (Mannheim, Germany) and Pharmingen (San Diego, Calif.), respectively.
9. Human In Vitro Assay. Human PBMC were isolated by centrifugation using Ficoll-Paque (Pharmacia Biotech, Uppsala, Sweden) and prepared in RPMI medium supplemented with 10% fetal calf serum (FCS), 100 U/mL penicillin, and 100 μg/mL streptomycin. PBMC were plated in wells of a 96-well plate at a concentration of 5×10^5 cells/well, and primed by adding IFNγ (30 U/mL) for 22 h and stimulated by adding LPS (1 μg/mL), or by adding IFNγ (100 U/mL) and then stimulated by adding SAC (0.01%). A test pyrimidine compound was dissolved in DMSO, and added to wells of the 96-well plate. The final DMSO concentration was adjusted to 0.25% in all cultures, including the compound-free control. Human THP-1 cells were plated in wells, primed by adding IFNγ (100 U/mL) for 22 h and stimulated by adding SAC (0.025%) in the presence of different concentrations of the pyrimidine compound. Cell-free supernatants were taken 18 h later for measurement of cytokines. Cell viability was assessed using the bioreduction of MTS. Cell survival was estimated by determining the ratio of the absorbance in compound-treated groups versus compound-free control.
10. The supernatant was assayed for the amount of […], IL-12p70, or IL-10 by using a sandwich ELISA with anti-human antibodies, i.e., a Human IL-12 p40 ELISA kit from R&D Systems (Berkeley, Calif.), and a Human IL-12 p70 or IL-10 ELISA kit from Endogen (Cambridge, Mass.). Assays were based on the manufacturer's instructions.
The biological activities of compounds of the invention were tested on human PBMC or THP-1 cells.

[1] = tested on: Adjuvant arthritis (AA) in female Lewis rats; test: Treatment of adjuvant arthritis in rats; type: in vivo, rat; conditions: 20 mg/kg dose, orally once a day for 7 days (day 7-14)
Experimental: Adjuvant arthritis (AA) was induced in female Lewis rats by the intracutaneous injection (base of the tail) of 0.1 mL of a 10 mg/mL bacterial suspension made from ground, heat-killed Mycobacterium tuberculosis H37Ra suspended in incomplete Freund's adjuvant. Rats were given a test compound orally once a day for 7 days (day 7-14), starting day 7 after mycobacterium induction. The development of polyarthritis was monitored daily by macroscopic inspection and assignment of an arthritis index to each animal, during the critical period (days 10 to 25 post-immunization).
The intensity of polyarthritis was scored according to the following scheme: (a) Grade each paw from 0 to 3 based on erythema, swelling, and deformity of the joints: 0 for no erythema or swelling; 0.5 if swelling is detectable in at least one joint; 1 for mild swelling and erythema; 2 for swelling and erythema of both tarsus and carpus; and 3 for ankylosis and bony deformity. Maximum score for all 4 paws is thus 12. (b) Grade for other parts of the body: for each ear, 0.5 for redness and another 0.5 if knots are present; 1 for connective tissue swelling (saddle nose); and 1 for the presence of knots or kinks in the tail. The highest possible arthritic index is 16.
Experiments with the AA model were repeated four times. […] The arthritis score used in this model is a reflection of the inflammatory state of the structures monitored and the results therefore show the ability of the test compound to provide relief for this aspect of the pathology.

For `COc1ccc2c(c1)/C(=N/Nc1cc(N3CCOCC3)nc(OCCN3CCOCC3)n1)CC2` [Compound 9, N-(6-Methoxy-indan-1-ylidene)-N′-[6-morpholin-4-yl-2-(2-morpholin-4-yl-ethoxy)-pyrimidin-4-yl]-hydrazine], the IC50 (IL-12) was < 1 µM and the “percent reduction in arthritic score” value [1] was 24%.
